“Also recorded” adds a separate entry of the source. Read-outs that look alike come from different tables or passages of the source.
Tests used:
P. falciparum [1] = experiment: Parasitemia in P. falciparum infected human red blood cells treated with acetaldehyde; type: cell-based, Plasmodium falciparum; conditions: acetaldehyde μM range (low levels); Geimsa stain and flow cytometry; preliminary data
Procedure: Parasitemia counts were determined by Geimsa stain and FACS.
[…] Exp. Res., 22: 1161-1164). […] Further, μM concentrations of 4HNE are also very common under conditions of infection, inflammation or fever (e.g. during the chill-fever cycles of malaria).

[2] = after drinking alcohol; cited from earlier work
P. falciparum [3] = conditions: cited from earlier work
[4] = 2.5 alcoholic drinks (0.5 g/kg body weight), cited from earlier work
[5] = test system: parasites in human RBC culture; experiment: Parasite growth (parasitemia) in human RBC culture with ALDH inhibitor; type: cell-based
Procedure: FIG. 8 depicts the effect of ALDH inhibitor, disulfiram, on parasitemia in RBC. Parasitemia were determined 24 and 72 hours after the addition of disulfiram at the indicated concentrations.
Disulfirm and diadzin are used as deterrents for treatment of alcoholism, and as such, are both safe and effective ALDH2 inhibitors. […] As a negative control, pyrazole, an alcohol dehydrogenase inhibitor, at a concentration as high as 500 μM has no effect on the growth of parasites.

P. berghei = conditions: wild type mice; expected
Source text: In this model, infections with P. berghei ANKA and NK65 strains yield highly reproducible peripheral parasitemias and gametocytemias that are infectious to An. stephensi. […] The ALDH2*2 mouse is on a C57/BL6 background, a mouse strain that is the most susceptible among common mouse strains to hepatic infection with P. berghei (Scheller L. F., et al. Susceptibility of different strains of mice to hepatic infection with Plasmodium berghei. Infect Immun. 1994; 62(11):4844-7). […] On the day of infection, mice in each of the experimental groups are infected by bite of An. stephensi (5-10 mosquitoes/mouse).
During P. berghei infection, liver stages and accompanying pathology are evident by 39 hr post-infection (Scheller L. F., et al. Susceptibility of different strains of mice to hepatic infection with Plasmodium berghei. Infect Immun. 1994; 62(11):4844-7), peripheral parasitemia is evident by 4-5 days post-infection, and gametocytemia rises with peripheral parasitemia to become infectious to An. stephensi. Based on these parameters, mice that are not sacrificed within 39-48 hrs post-infection to assess liver stage parasites and pathology are examined daily for peripheral parasitemia beginning at 3 days post-infection.

[6] = expected

Q: For `CC=O` [acetaldehyde], which “growth of P. falciparum / parasitemia in human RBCs” value (P. falciparum [1]) is on record?
A: Its value is “inhibit growth; also recorded: reduces parasitemia”.

Q: And the “acetaldehyde concentration in human saliva” value [2]?
A: Its value is no less than 450 µM.

Q: And the “toxicity to malaria parasites in vitro” value (P. falciparum [3])?
A: Its value is “toxic”.

Q: What about the blood acetaldehyde level ([4]; human ALDH2*2 heterozygotic subjects) of the same compound?
A: Its blood acetaldehyde level is 60 µM.

Q: What about the blood acetaldehyde level ([4]; subjects with wild type enzyme) of the same compound?
A: The blood acetaldehyde level was roughly 2 µM.

Q: Which IC50 ([5]; human RBC culture, in the absence of alcohol, read-out: inhibition of parasite growth IC50) does the source give for “tetraethylthioperoxydicarbonic diamide [disulfiram]” here?
A: Its IC50 is 9.7 µM.

Q: With `CCCCCC(O)C=CC=O` (stereo not drawn) [4HNE, 4-Hydroxy-2-nonenal] as the compound, how does the “reduction of growth of P. falciparum relative to controls” value (P. falciparum [3]; 50-100 μM) read?
A: Its value is 50-100%.

Q: And the “toxicity to malaria parasites in vitro” value (P. falciparum [3])?
A: The value was “toxic”.

Q: For `c1cn[nH]c1` [pyrazole], which “effect on the growth of parasites” value ([5]; negative control, concentration as high as 500 μM) is on record?
A: Its value is “no effect”.

Q: With `CCO` [ethanol] as the compound, how does the “parasite infection, histopathology, or transmission due to ethanol treatment” value (P. berghei) read?
A: The value was “no significant differences”.

Q: And the “difference in blood acetaldehyde level between wild type and ALDH2*2 mutant animals” value ([6]; 1.5 to 4.0 g/kg acute ethanol administration)?
A: The value was “at least 5 fold”.

Q: What about the “duration of the difference in blood acetaldehyde level” value ([6]; after single dose of ethanol) of the same compound?
A: Its value is 4 to 6 h.

From US20160008419A1, “Methods and Compositions for the Prevention and Treatment of Parasitic Disease” (THE BOARD OF TRUSTEES OF THE LELAND STANFORD JUNIOR …, priority 2013, published 2016)
